Results reported in patent US9765075B2, “Substituted bridged urea analogs as sirtuin modulators” (GLAXOSMITHKLINE LLC, priority 2013, dated 2017).
Where two headings read alike, the source gives them in different places.

Target: T1, SIRT1 (Homo sapiens, UniProt Q96EB6)
T1 sequence (Q96EB6 1-747): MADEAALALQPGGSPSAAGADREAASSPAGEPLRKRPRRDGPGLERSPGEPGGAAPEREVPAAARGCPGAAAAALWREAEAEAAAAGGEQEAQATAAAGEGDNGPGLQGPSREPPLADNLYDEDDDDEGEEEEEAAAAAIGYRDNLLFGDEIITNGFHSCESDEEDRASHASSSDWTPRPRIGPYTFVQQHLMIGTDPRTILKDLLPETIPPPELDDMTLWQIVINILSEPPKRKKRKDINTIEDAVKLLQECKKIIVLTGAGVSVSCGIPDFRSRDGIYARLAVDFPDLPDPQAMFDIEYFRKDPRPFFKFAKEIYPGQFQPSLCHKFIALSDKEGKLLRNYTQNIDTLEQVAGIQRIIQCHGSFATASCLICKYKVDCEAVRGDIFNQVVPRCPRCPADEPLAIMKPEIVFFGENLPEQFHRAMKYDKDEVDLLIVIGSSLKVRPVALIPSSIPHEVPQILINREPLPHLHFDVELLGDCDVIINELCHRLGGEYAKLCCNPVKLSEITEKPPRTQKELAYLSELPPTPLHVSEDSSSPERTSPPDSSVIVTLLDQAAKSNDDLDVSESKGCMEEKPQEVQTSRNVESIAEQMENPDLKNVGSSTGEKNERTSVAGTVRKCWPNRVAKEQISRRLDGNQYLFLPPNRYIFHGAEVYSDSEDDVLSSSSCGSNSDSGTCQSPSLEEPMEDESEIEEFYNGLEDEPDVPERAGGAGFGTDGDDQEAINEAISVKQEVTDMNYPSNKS
Assay: Trp mass spectrometry assay (SIRT1 activation)
Assay type: biochemical
Details: for Emax: percent maximum fold activation of SIRT1, read-out: Tryp % Fold Act
In short: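 Activation is expressed as EC1.5, the concentration raising activity 50% above DMSO control, and as maximum percent of control. Mass-spec readout was OAADPR or deacetylated Trp peptide after a formic-acid-quenched 25-min, 25 °C reaction: 10 nM bacterially expressed His-SIRT1, 0.5 μM acetyl-p53-derived peptide, 120 μM NAD+, pH 7.5 HEPES with […].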

[1] = Trp mass spectrometry assay, EC1.5 = concentration giving 150% activation of SIRT1
[2] = concentration of test compound that results in 150% activation of SIRT1, Trp peptide substrate
[3] = Trp mass spectrometry assay, EC1.5 = concentration of test compound that results in 150% activation of SIRT1

Structure (SMILES)	Tryp AVG EC1.5 (μM) [1]	Emax (Trp mass spectrometry assay) [%]	Tryp AVG EC1.5 (μM) [2]	Emax (Trp peptide substrate) [%]	Tryp AVG EC1.5 (μM) [3]
N=C(NCCN)c1ccc(NC(=O)N2c3nc(-c4cccc(C(F)(F)F)c4)ccc3N3CCC[C@H]2C3)cc1 [Example 792]	A (EC1.5<1 μM)	≥ 150			
O=C(Nc1ccncc1F)N1c2nc(-c3cccc(CC(O)CO)c3)ccc2N2CC[C@H]1C2 (stereo partly shown) [Example 357]			B (EC1.5 1-25 μM)	≥ 150	
O=C(Nc1ccc2c(c1)OCCCO2)N1c2nc(-c3cccc(C(F)(F)F)c3)ccc2N2CC[C@H]1C2 [Example 95]		≥ 150			A (EC1.5<1 μM)
O=C(Nc1cncc(F)c1)N1c2nc(-c3cccc(Cl)c3)ccc2N2CCC1CC2 [Example 521]			B (EC1.5 1-25 μM)	≥ 150	
Cc1cncc(NC(=O)N2c3nc(N4CCCC(C(F)(F)F)C4)ccc3N3CCC[C@@H]2C3)c1 (stereo partly shown) [Example 303]			B (EC1.5 1-25 μM)	≥ 150	
O=C(Nc1ccncc1F)N1c2nc(-c3cccc(C(F)(F)F)c3)ccc2N2CC[C@H]1C2 [Example 15]		≥ 150			
O=C(Nc1ccc(F)cn1)N1c2nc(-c3cccc(N4CC[C@@H](F)C4)c3)ccc2N2CC[C@H]1C2 [Example 269]			B (EC1.5 1-25 μM)	≥ 150	
CC(=O)c1sc(NC(=O)N2c3nc(-c4cccc(C(F)(F)F)c4)ccc3N3CC[C@H]2C3)nc1C [Example 75]		≥ 150			A (EC1.5<1 μM)
O=C(Nc1ccc(F)cn1)N1c2nc(-c3cccc(N4CC[C@H](F)C4)c3)ccc2N2CC[C@H]1C2 [Example 270]			B (EC1.5 1-25 μM)	≥ 150	
CN(C)[C@H]1CCN(c2ccc3c(n2)N(C(=O)Nc2cccnc2)[C@H]2CCN3C2)C1 [Example 242]			B (EC1.5 1-25 μM)	≥ 150	
CC(C)(C)c1ccccc1NC(=O)N1c2nc(-c3cccc(C(F)(F)F)c3)ccc2N2CC[C@H]1C2 [Example 70]		< 150			
O=C(Nc1cccnc1)N1c2nc(N3CCCC(C(F)(F)F)C3)ccc2N2CC[C@H]1C2 (stereo partly shown) [Example 229]			B (EC1.5 1-25 μM)	≥ 150	
O=C(Nc1cccc(-c2cnco2)c1)N1c2nc(-c3cccc(Cl)c3)ccc2N2CC[C@H]1C2 [Example 365]			A (EC1.5<1 μM)	≥ 150	
CN(C)[C@H]1CCN(c2ccc3c(n2)N(C(=O)Nc2cnccn2)[C@H]2CCN3C2)C1 [Example 246]			B (EC1.5 1-25 μM)	≥ 150	
Cc1cnc2c(NC(=O)N3c4nc(-c5cccc(C(F)(F)F)c5)ccc4N4CC[C@H]3C4)cccc2n1 [76 (8)]		≥ 150			A (EC1.5<1 μM)
O=C(Nc1ccncn1)N1c2nc(-c3cccc(C(F)(F)F)n3)ccc2N2CC[C@H]1C2 [Example 337]			B (EC1.5 1-25 μM)	≥ 150	
O=C(Nc1ccc(F)cn1)N1c2nc(C3CCCC(C(F)(F)F)C3)ccc2N2CC[C@H]1C2 (stereo partly shown) [Example 144]		≥ 150			B (EC1.5 1-25 μM)
CC(C)(C)OC(=O)NCc1cccc(-c2ccc3c(n2)N(C(=O)Nc2ccncc2)[C@H]2CCCN3C2)c1 [Example 795]	B (EC1.5 1-25 μM)	≥ 150			
Cc1nc(NC(=O)N2c3nc(-c4ccccc4C#N)ccc3N3CCC[C@H]2C3)sc1C [Example 476]			B (EC1.5 1-25 μM)	≥ 150	
O=C(Nc1ccc(F)cn1)N1c2nc(-c3cccc(N4CCCC4)c3)ccc2N2CC[C@H]1C2 [Example 131]		≥ 150			B (EC1.5 1-25 μM)
O=C(Nc1cccc(-c2cnco2)c1)N1c2nc(N3CCCC(C(F)(F)F)C3)ccc2N2CC[C@H]1C2 (stereo partly shown) [Example 212]		≥ 150			A (EC1.5<1 μM)
O=C(NCCCn1ccnc1)N1c2nc(-c3cccc(C(F)(F)F)c3)ccc2N2CC[C@H]1C2 [Example 627]	B (EC1.5 1-25 μM)	≥ 150			
O=C(Nc1cccc(-c2cnco2)c1)N1c2nc(-c3cccc(C(F)(F)F)c3)ccc2N2CC[C@H]1C2 [68 (1)]		≥ 150			A (EC1.5<1 μM)
CN(C)c1ccc(-c2ccc3c(n2)N(C(=O)Nc2cnccn2)[C@H]2CCN3C2)cn1 [Example 458]			B (EC1.5 1-25 μM)	≥ 150	
O=C(Nc1ccncn1)N1c2nc(-c3cccc(C(F)(F)F)c3)ccc2N2CC[C@@H]1C2 [Example 202]		≥ 150			B (EC1.5 1-25 μM)

Structure (SMILES)	Tryp AVG EC1.5 (μM) [1]	Emax (Trp mass spectrometry assay) [%]	Tryp AVG EC1.5 (μM) [2]	Emax (Trp peptide substrate) [%]	Tryp AVG EC1.5 (μM) [3]
Cn1ncc2cc(NC(=O)N3c4nc(-c5cccc(C#N)c5)ccc4N4CC[C@H]3C4)ccc21 [Example 184]		≥ 150			A (EC1.5<1 μM)
O=C(Nc1cccc(-c2cnco2)c1)N1c2nc(N3CCC[C@@H](C(F)(F)F)C3)ccc2N2CC[C@H]1C2 [Example 717]	A (EC1.5<1 μM)	≥ 150			
Cc1ccncc1-c1ccc2c(n1)N(C(=O)Nc1cncc(F)c1)[C@H]1CCCN2C1 [Example 510]			B (EC1.5 1-25 μM)	≥ 150	
O=C(Nc1ccc(F)cn1)N1c2nc(-c3cccc(N4CCC(F)(F)C4)c3)ccc2N2CC[C@H]1C2 [Example 257]			B (EC1.5 1-25 μM)	≥ 150	
O=C(Nc1ccncc1F)N1c2nc(-c3cccc(OC(F)(F)F)c3)ccc2N2CC[C@H]1C2 [Example 153]		≥ 150			A (EC1.5<1 μM)
Cc1cc(NC(=O)N2c3nc(-c4cccc(C(F)(F)F)c4)ccc3N3CC[C@H]2C3)ccn1 [Example 61]		≥ 150			
O=C(Nc1ccccn1)N1c2nc(-c3cncc(Cl)c3)ccc2N2CCC[C@H]1C2 [Example 406]			A (EC1.5<1 μM)	≥ 150	
Cc1noc(C)c1-c1ccc2c(n1)N(C(=O)Nc1ccccn1)[C@H]1CCN2C1 [Example 327]			C (EC1.5>25 μM)	≥ 150	
O=C(Nc1cnccn1)N1c2nc(-c3cc(F)c(F)c(F)c3)ccc2N2CC[C@H]1C2 [Example 416]			C (EC1.5>25 μM)	< 150	
O=C(Nc1ccccn1)N1c2nc(-c3cncc(F)c3)ccc2N2CC[C@H]1C2 [Example 374]			B (EC1.5 1-25 μM)	≥ 150	
O=C(Nc1nnc(C(F)(F)F)s1)N1c2nc(-c3cccc(C(F)(F)F)c3)ccc2N2CC[C@H]1C2 [Example 650]	C (EC1.5>25 μM)	< 150			
Cc1nc(NC(=O)N2c3nc(N4CCCC(C(F)(F)F)C4)ccc3N3CC[C@H]2C3)sc1C (stereo partly shown) [Example 215]		≥ 150			B (EC1.5 1-25 μM)
O=C(Nc1ccncn1)N1c2nc(-c3cccnc3)ccc2N2CCC[C@H]1C2 [Example 456]			B (EC1.5 1-25 μM)	≥ 150	
O=C(Nc1cncc(F)c1)N1c2nc(-c3cccc(N4CCCC4)c3)ccc2N2CC[C@H]1C2 [Example 198]		≥ 150			B (EC1.5 1-25 μM)
O=C(Nc1ccccn1)N1c2nc(-c3cccc(C(F)(F)F)c3)ccc2N2CC[C@@H]1C2 [Example 823]	A (EC1.5<1 μM)	≥ 150			
COc1cc(-c2cccc(C(F)(F)F)c2)nc2c1N1CC[C@@H](C1)N2C(=O)Nc1ccccn1 [Example 159]		≥ 150			A (EC1.5<1 μM)
Cc1nccn1CCCNC(=O)N1c2nc(-c3cccc(C(F)(F)F)c3)ccc2N2CC[C@H]1C2 [Example 632]	C (EC1.5>25 μM)	≥ 150			
O=C(Nc1cncc(F)c1)N1c2nc(-c3cccc(N4CCC(F)(F)C4)c3)ccc2N2CC[C@H]1C2 [Example 271]			A (EC1.5<1 μM)	≥ 150	
O=C(Nc1ccccn1)N1c2nc(-c3cccc(C(F)(F)F)c3)ccc2N2CC[C@H]1C2 [816 (7)]	A (EC1.5<1 μM)	≥ 150			
COc1nccc(NC(=O)N2c3nc(-c4cccc(F)c4)ccc3N3CC[C@H]2C3)n1 [Example 60]		≥ 150			
O=C(Nc1ccccn1)N1c2nc(-c3cccc(N4CCOCC4)c3)ccc2N2CCC[C@H]1C2 [Example 536]			B (EC1.5 1-25 μM)	≥ 150	
O=C(Nc1ccccn1)N1c2nc(-c3cncc(Cl)c3)ccc2N2CCC1CC2 [Example 551]			B (EC1.5 1-25 μM)	≥ 150	
COc1cc(-c2cccc(Cl)c2)nc2c1N1CC[C@@H](C1)N2C(=O)Nc1cnccn1 [Example 396]			A (EC1.5<1 μM)	≥ 150	
N#Cc1ccccc1-c1ccc2c(n1)N(C(=O)Nc1cccnn1)[C@H]1CCCN2C1 [Example 426]			B (EC1.5 1-25 μM)	≥ 150	
